These molecules were tested against T1, HIF-PHD2 (Homo sapiens, UniProt Q9GZT9) (assay: Assay for HIF-PHD2 Catalytic Activity (PHD2 Binding Activity)). Details: not given.
T1 construct: FLAG-tagged full length PHD2 expressed in and purified from baculovirus-infected Sf9 cells; FLAG; made in house; host or cells: baculovirus-infected Sf9 cells
T1 sequence (Q9GZT9 whole entry): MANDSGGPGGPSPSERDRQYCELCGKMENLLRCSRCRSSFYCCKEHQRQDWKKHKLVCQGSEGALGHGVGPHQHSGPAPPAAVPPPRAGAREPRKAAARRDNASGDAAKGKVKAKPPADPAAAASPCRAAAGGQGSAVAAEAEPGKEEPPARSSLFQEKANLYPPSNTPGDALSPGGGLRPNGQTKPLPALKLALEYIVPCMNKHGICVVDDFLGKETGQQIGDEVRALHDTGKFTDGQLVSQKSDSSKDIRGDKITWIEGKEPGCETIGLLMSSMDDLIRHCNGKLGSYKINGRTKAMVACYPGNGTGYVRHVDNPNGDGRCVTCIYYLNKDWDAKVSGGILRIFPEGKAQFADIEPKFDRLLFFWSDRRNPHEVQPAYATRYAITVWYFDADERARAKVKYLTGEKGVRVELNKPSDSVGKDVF
Format: biochemical
Molecule `Cc1cccnc1CN1CCC2(C(=O)N(c3ccc(-c4ccccc4)cc3)C(=O)N2c2cc(O)ncn2)C(C(=O)O)C1` (stereo not drawn) [Compound 3-7, 3-biphenyl-4-yl-1-(6-hydroxypyrimidin-4-yl)-8-[(3-methylpyridin-2-yl)methyl]-2,4-dioxo-1,3,8-triazaspiro[4.5]decane-6-carboxylic acid] has an IC50 of 0.0005 to 0.02 µM. `Cc1cccnc1CN1CCC2(CC1)C(=O)N(c1ccccc1)C(=O)N2c1nccc(O)n1` [Compound 1-3, 1-(4-hydroxypyrimidin-2-yl)-8-[(3-methylpyridin-2-yl)methyl]-3-phenyl-1,3,8-triazaspiro[4.5]decane-2,4-dione] was tested, and the IC50 was greater than 0.05 µM. Work on `COc1ccnc(N2C(=O)N(c3ccc(-c4ccc(C(=O)O)cc4C)nc3)C(=O)C23CCN(Cc2ncccc2C)CC3)n1` [Compound 11-2, 4-(5-{1-(4-methoxypyrimidin-2-yl)-8-[(3-methylpyridin-2-yl)methyl]-2,4-dioxo-1,3,8-triazaspiro[4.5]dec-3-yl}-pyridin-2-yl)-3-methylbenzoic acid] yielded an IC50 of 0.0005 to 0.02 µM. `Cc1cccnc1CN1CCC2(CC1)C(=O)N(c1ccc(-c3ccccc3)cc1)C(=O)N2c1cnc(O)cn1` [Compound 1-45, 3-biphenyl-4-yl-1-(5-hydroxypyrazin-2-yl)-8-[(3-methylpyridin-2-yl)methyl]-1,3,8-triazaspiro[4.5]decane-2,4-dione] was tested, and the IC50 was 0.02 to 0.05 µM. With `O=C1N(c2ccc(-c3ccccc3)cc2)C(=O)C2(CCN(Cc3ncccc3Br)CC2)N1c1nccc(O)n1` [Compound 1-31, 3-biphenyl-4-yl-8-[(3-bromopyridin-2-yl)methyl]-1-(4-hydroxypyrimidin-2-yl)-1,3,8-triazaspiro[4.5]decane-2,4-dione] the IC50 was greater than 0.05 µM. For `Cc1cccnc1CN1CCC2(CC1)C(=O)N(c1ccc(-c3ccccc3)cc1)C(=O)N2c1ccccc1` [Compound 1-4, 3-biphenyl-4-yl-8-[(3-methylpyridin-2-yl)methyl]-1-phenyl-1,3,8-triazaspiro[4.5]decane-2,4-dione], the IC50 was 0.0005 to 0.02 µM. `COc1ccnc(CN2CCC3(CC2)C(=O)N(c2ccc(-c4ccc(C(=O)O)cc4)nc2)C(=O)N3c2cc(OC)ncn2)c1` [Compound 10-3, 4-(5-{8-[(4-methoxypyridin-2-yl)methyl]-1-(6-methoxypyrimidin-4-yl)-2,4-dioxo-1,3,8-triazaspiro[4.5]dec-3-yl}-pyridin-2-yl) benzoic acid] gave an IC50 of 0.0005 to 0.02 µM. For `COc1ccnc(N2C(=O)N(c3ccc(-c4nnn[nH]4)cc3)C(=O)C23CCN(Cc2ncccc2C)CC3)n1` [Compound 1-15, 1-(4-methoxypyrimidin-2-yl)-8-[(3-methylpyridin-2-yl)methyl]-3-[4-(1H-tetrazol-5-yl)phenyl]-1,3,8-triazaspiro[4.5]decane-2,4-dione], the IC50 was 0.02 to 0.05 µM. `COc1ccnc(N2C(=O)N(c3ccc(C#N)cc3)C(=O)C23CCN(Cc2ncccc2C)CC3)n1` [Compound 1-25, 4-{1-(4-methoxypyrimidin-2-yl)-8-[(3-methylpyridin-2-yl)methyl]-2,4-dioxo-1,3,8-triazaspiro[4.5]dec-3-yl}benzonitrile] showed an IC50 greater than 0.05 µM. Work on `Cc1cccnc1CN1CCC2(CC1)C(=O)N(c1ccc(-c3cccc(C(=O)O)c3)cc1)C(=O)N2c1ncccn1` [Compound 1-66, 4′-{8-[(3-methylpyridin-2-yl)methyl]-2,4-dioxo-1-pyrimidin-2-yl-1,3,8-triazaspiro[4.5]dec-3-yl}biphenyl-3-carboxylic acid] yielded an IC50 of 0.0005 to 0.02 µM. `COc1cc(N2C(=O)N(c3ccc(-c4ccc(C(=O)O)cc4)nc3)C(=O)C23CCN(Cc2cc(O)ccn2)CC3)ncn1` [Compound 10-4, 4-(5-{8-[(4-hydroxypyridin-2-yl)methyl]-1-(6-methoxypyrimidin-4-yl)-2,4-dioxo-1,3,8-triazaspiro[4.5]dec-3-yl}-pyridin-2-yl) benzoic acid] showed an IC50 of 0.0005 to 0.02 µM. For `COc1cc(N2C(=O)N(c3ccc(-c4ccc(C(=O)O)cc4F)nc3)C(=O)C23CCN(Cc2ncccc2C)CC3)ncn1` [Compound 12-1, 3-fluoro-4-(5-{1-(6-methoxypyrimidine-4-yl)-8-[(3-methylpyridin-2-yl)methyl]-2,4-dioxo-1,3,8-triazaspiro[4.5]dec-3-yl}pyridin-2-yl)-3-benzoic acid], the IC50 was 0.0005 to 0.02 µM. In the case of `COc1ccnc(N2C(=O)N(c3ccc(-c4ccccc4)cc3)C(=O)C23CCN(CC(=O)O)CC3)n1` [Compound 2-6, [3-biphenyl-4-yl-1-(4-methoxypyrimidin-2-yl)-2,4-dioxo-1,3,8-triazaspiro[4.5]dec-8-yl]acetic acid], the IC50 is reported as 0.0005 to 0.02 µM. With `COC(=O)c1cccc(N2C(=O)N(c3ccc(-c4ccccc4)cc3)C(=O)C23CCN(Cc2ncccc2C)CC3)n1` [Compound 1-13, methyl 6-{3-biphenyl-4-yl-8-[(3-methylpyridin-2-yl)methyl]-2,4-dioxo-1,3,8-triazaspiro[4.5]dec-1-yl}pyridine-2-carboxylate] the IC50 was 0.0005 to 0.02 µM. With `CCOC(=O)C1CN(Cc2ncccc2C)CCC12C(=O)N(c1ccc(-c3ccccc3)cc1)C(=O)N2c1cc(OC)ncn1` (stereo not drawn) [Compound 3-9, Ethyl 3-biphenyl-4-yl-1-(6-methoxypyrimidin-4-yl)-8-[(3-methylpyridin-2-yl)methyl]-2,4-dioxo-1,3,8-triazaspiro[4.5]decane-6-carboxylate] the IC50 was 0.0005 to 0.02 µM. `COc1ccnc(N2C(=O)N(c3ccc(-c4ccccc4)cc3)C(=O)C23CCN(Cc2ncccc2Br)CC3)n1` [Compound 1-28, 3-biphenyl-4-yl-8-[(3-bromopyridin-2-yl)methyl]-1-(4-methoxypyrimidin-2-yl)-1,3,8-triazaspiro[4.5]decane-2,4-dione] showed an IC50 of 0.02 to 0.05 µM. Work on `Cc1cccnc1CN1CCC2(CC1)C(=O)N(c1ccc(-c3ccccc3)cc1)C(=O)N2c1nccc(C(=O)O)n1` [Compound 1-59, 2-{3-biphenyl-4-yl-8-[(3-methylpyridin-2-yl)methyl]-2,4-dioxo-1,3,8-triazaspiro[4.5]dec-1-yl}pyrimidine-4-carboxylic acid] yielded an IC50 of 0.0005 to 0.02 µM. With `Cc1cncc(N2C(=O)N(c3ccc(-c4ccc(C(=O)O)cc4)cc3)C(=O)C23CCN(Cc2ncccc2C)CC3)n1` [Compound 7-7, 4′-{1-(6-methylpyrazin-2-yl)-8-[(3-methylpyridin-2-yl)methyl]-2,4-dioxo-1,3,8-triazaspiro[4.5]dec-3-yl}biphenyl-4-carboxylic acid] the IC50 was 0.0005 to 0.02 µM. In the case of `Cc1cccnc1CN1CCC2(CC1)C(=O)N(c1ccc(-c3ccccc3)cc1)C(=O)N2c1nc(O)cc(O)n1` [Compound 1-55, 3-biphenyl-4-yl-1-(4,6-dihydroxypyrimidin-2-yl)-8-[(3-methylpyridin-2-yl)methyl]-1,3,8-triazaspiro[4.5]decane-2,4-dione], the IC50 is reported as 0.0005 to 0.02 µM. With `O=C(O)c1[nH]cnc1CN1CCC2(CC1)C(=O)N(c1ccc(-c3ccccc3)cc1)C(=O)N2c1ncccn1` [Compound 1-64, 4-[(3-biphenyl-4-yl-2,4-dioxo-1-pyrimidin-2-yl-1,3,8-triazaspiro[4.5]dec-8-yl)methyl]-1-H-imidazole-5-carboxylic acid] the IC50 was 0.0005 to 0.02 µM. `O=C(O)Cn1ccnc1CN1CCC2(CC1)C(=O)N(c1ccc(-c3ccccc3)cc1)C(=O)N2c1nccc(O)n1` [Compound 1-23, (2-{[3-biphenyl-4-yl-1-(4-hydroxypyrimidin-2-yl)-2,4-dioxo-1,3,8-triazaspiro[4.5]dec-8-yl]methyl}-1H-imidazol-1-yl)acetic acid] was tested, and the IC50 was 0.0005 to 0.02 µM. Molecule `COc1ccnc(N2C(=O)N(c3ccc(-c4ccccc4)cc3)C(=O)C23CCN(Cc2ncccc2C)CC3)n1` [Compound 1-29, 3-biphenyl-4-yl-1-(4-methoxypyrimidin-2-yl)-8-[(3-methylpyridin-2-yl)methyl]-1,3,8-triazaspiro[4.5]decane-2,4-dione] has an IC50 of 0.0005 to 0.02 µM. `O=C(O)CCn1ccnc1CN1CCC2(CC1)C(=O)N(c1ccc(-c3ccccc3)cc1)C(=O)N2c1nccc(O)n1` [Compound 1-24, 3-(2-{[3-biphenyl-4-yl-1-(4-hydroxypyrimidin-2-yl)-2,4-dioxo-1,3,8-triazaspiro[4.5]dec-8-yl]methyl}-1H-imidazol-1-yl)propanoic acid] was tested, and the IC50 was 0.0005 to 0.02 µM. In the case of `COc1cccc(N2C(=O)N(c3ccc(-c4ccccc4)cc3)C(=O)C23CCN(Cc2ncccc2C)CC3)n1` [Compound 1-11, 3-biphenyl-4-yl-1-(6-methoxypyridin-2-yl)-8-[(3-methylpyridin-2-yl)methyl]-1,3,8-triazaspiro[4.5]decane-2,4-dione], the IC50 is reported as 0.0005 to 0.02 µM. For `Cc1cc(C(=O)O)ccc1-c1ccc(N2C(=O)N(c3cccnn3)C3(CCN(Cc4ncccc4C)CC3)C2=O)cc1` [Compound 9-2, 2-methyl-4′-{8-[(3-methylpyridin-2-yl)methyl]-2,4-dioxo-1-pyridazin-3-yl-1,3,8-triazaspiro[4.5]dec-3-yl}biphenyl-4-carboxylic acid], the IC50 was 0.0005 to 0.02 µM.

Same assay, conditions: read-out: PHD2 Binding Activity IC50
`O=C(O)c1[nH]cnc1CN1CCC2(CC1)NC(=O)N(c1ccc(-c3ccccc3)cc1)C2=O` [Compound 1-51, 4-[(3-biphenyl-4-yl-2,4-dioxo-1,3,8-triazaspiro[4.5]dec-8-yl)methyl]-1-H-imidazole-5-carboxylic acid] was tested, and the IC50 was 0.0005 to 0.02 µM. `Cc1cccnc1CN1CCC2(CC1)C(=O)N(c1ccc(-c3ccccc3)cc1)C(=O)N2C(=O)CCC(=O)O` [Compound 5-7, 4-{3-biphenyl-4-yl-8-[(3-methylpyridin-2-yl)methyl]-2,4-dioxo-1,3,8-triazaspiro[4.5]dec-1-yl}-4-oxobutanoic acid] was tested, and the IC50 was 0.0005 to 0.02 µM. Work on `O=C(O)CN1CCC2(CC1)NC(=O)N(c1ccc(-c3ccccc3)cc1)C2=O` [Compound 4-1, (3-biphenyl-4-yl-2,4-dioxo-1,3,8-triazaspiro[4.5]dec-8-yl)acetic acid] yielded an IC50 greater than 0.05 µM. `Cc1cccnc1CN1CCC2(CC1)C(=O)N(c1ccc(-c3ccccc3)cc1)C(=O)N2C` [Compound 2-1, 3-biphenyl-4-yl-1-methyl-8-[(3-methylpyridin-2-yl)methyl]-1,3,8-triazaspiro[4.5]decane-2,4-dione] was tested, and the IC50 was 0.0005 to 0.02 µM. `Cc1cccnc1CN1CCC2(CC1)C(=O)N(c1ccc(-c3ccccc3)cc1)C(=O)N2C(=O)N[C@@H](CO)C(=O)O` [Compound 5-6, N-({3-biphenyl-4-yl-8-[(3-methylpyridin-2-yl)methyl]-2,4-dioxo-1,3,8-triazaspiro[4.5]dec-1-yl}carbonyl)-L-serine] showed an IC50 of 0.0005 to 0.02 µM.

— patent US8921555B2, “Substituted-1,3,8-triazaspiro[4.5]decane-2,4-diones” (Merck Sharp & Dohme Corp., priority 2009, dated 2014)
